≈ marks a conversion by molar mass, not a printed value.
conditions: buffer; pH 7.4; 200.0 µM

Row | SMILES | solubility kinetic
1 | O=C(c1cccc(Cl)c1)N1CCC(c2nc3ccccc3[nH]2)CC1 | 42.6 µg/mL (≈ 125 µM)
2 | COc1ccccc1C(=O)NCC(=O)N1CCN(C/C=C/c2ccccc2)CC1 | > 59 µg/mL
3 | O=C(Nc1cccnc1)c1cccc(S(=O)(=O)N2CCCCC2)c1 | > 51.8 µg/mL
4 | Cc1c(Cl)cccc1Nc1ccccc1C(=O)O | > 39.3 µg/mL
5 | COc1ccccc1-c1cn(-c2ccccc2)c(=S)[nH]1 | 3.8 µg/mL (≈ 13.5 µM)
6 | O=[N+]([O-])c1ccccc1OCCOc1ccccc1[N+](=O)[O-] | < 0.3 µg/mL
7 | O=C(COC(=O)COc1ccccc1)Nc1ccc(Br)cc1Br | 2.2 µg/mL (≈ 4.97 µM)
8 | CCSc1nc2ccc(C)cc2cc1C#N | < 0.2 µg/mL
9 | O=C(Cc1ccccc1)NC(C(=O)O)C(O)c1ccc([N+](=O)[O-])cc1 (stereo not given) | > 51.6 µg/mL
10 | Fc1ccc(NCc2nnc3n2CCCCC3)cc1 | > 39 µg/mL
11 | CN1CCC(N(C)C(=O)c2ccccc2F)CC1.Cl | 42.9 µg/mL
12 | CCOC(=O)c1cn(C2CC2)c2c(F)c(NCCCN(C)C)c(F)cc2c1=O | 53.5 µg/mL (≈ 136 µM)
13 | CCOC(=O)Cc1csc(NC(=O)Nc2ccc(Cl)cc2)n1 | 1.3 µg/mL (≈ 3.83 µM)
14 | O=C(CCCOc1ccc(Cl)cc1)NC1CCCCC1 | 1.9 µg/mL (≈ 6.42 µM)
15 | CCOC(=O)c1cc(S(=O)(=O)N2CCOCC2)cn1C | 45.1 µg/mL (≈ 149 µM)
16 | c1ccc2c(OCCCCN3CCCC3)cccc2c1 | 40.1 µg/mL (≈ 149 µM)
17 | CC(C)(C)c1ccc(C(=O)NCC(=O)N2CCCC2)cc1 | > 43.3 µg/mL
18 | COc1ccc2c3c([nH]c2c1)C(C)=NCC3 | 30.6 µg/mL (≈ 143 µM)
19 | COc1ccc(NS(=O)(=O)c2cc(NC(=O)c3ccccc3)ccc2N2CCOCC2)cc1 | 13.1 µg/mL (≈ 28 µM)
20 | COc1nc(Nc2ccccc2F)nc(OC)n1 | > 37.5 µg/mL
21 | O=C(CCCC(=O)c1ccccc1)NCCc1ccccc1F | 44.1 µg/mL (≈ 141 µM)
22 | NS(=O)(=O)c1ccc(NC(=O)c2ccc(S(=O)(=O)N3CCCCC3)cc2)cc1 | 2.1 µg/mL (≈ 4.96 µM)
23 | Cc1ccc(CNC(=O)N2CCN(c3ccc(C)cc3)CC2)cc1 | 4.1 µg/mL (≈ 12.7 µM)
24 | COc1ccc(C(C)C)cc1S(=O)(=O)NC1CCCC1 | 3 µg/mL (≈ 10.1 µM)

Row | SMILES | solubility kinetic
25 | O=C(O)CCNS(=O)(=O)c1ccc2c(c1)CCCC2 | > 42.5 µg/mL
26 | NC(=O)CSc1nccn1Cc1ccc2c(c1)OCO2 | > 43.7 µg/mL
27 | O=C(COC(=O)c1ccccc1O)Nc1ncc(Cl)cc1Cl | 23.5 µg/mL (≈ 68.9 µM)
28 | CC(NC(=O)COC(=O)CCC(=O)c1ccc(Cl)cc1)c1ccccc1 (stereo not given) | > 56.1 µg/mL
29 | COc1ccc2c(c1)C1OCCC1C(c1ccco1)N2 (stereo not given) | > 40.7 µg/mL
30 | COc1ccc(-c2csc(N=C(N)N)n2)cc1 | 12.2 µg/mL (≈ 49.1 µM)
31 | COc1ccc(CNC(=O)CN2C(=O)NC3(CCCCCC3)C2=O)cc1 | > 53.9 µg/mL
32 | FC(F)(F)c1cccc(-c2nc(COc3ccc(Cl)cc3Cl)no2)c1 | < 0.4 µg/mL
33 | O=C1CCc2ccccc2N1 | 15.9 µg/mL (≈ 108 µM)
34 | CS(=O)(=O)c1ccccc1C(=O)Nc1cccc2ncccc12 | 35.9 µg/mL (≈ 110 µM)
35 | Cc1cc(C)nc(NC(=O)CSc2ncccn2)n1 | > 41.3 µg/mL
36 | CS(=O)(=O)N1CCc2nc(-c3ccccc3)sc2C1 | 10.4 µg/mL (≈ 35.3 µM)
37 | CC(C)(C)NC(=O)C1CCN(C(=O)c2ccco2)CC1 | 41.2 µg/mL (≈ 148 µM)
38 | O=C(NCCCCCCNC(=O)c1ccncc1)c1ccncc1 | > 49 µg/mL
39 | CSc1nc(N)nc(C(C)C)n1 | > 27.6 µg/mL
40 | Cc1ccsc1C(=O)NCC(C)(C)N1CCOCC1 | > 42.4 µg/mL
41 | CN(C)c1ccc(NC(=O)CCN2C(=O)c3cccc([N+](=O)[O-])c3C2=O)cc1 | 42.4 µg/mL (≈ 111 µM)
42 | O=C(NC1CC2CCCC(C1)N2C(=O)Nc1ccccc1)c1ccccc1 (stereo not given) | 4.6 µg/mL (≈ 12.7 µM)
43 | O=[N+]([O-])c1ccccc1S(=O)(=O)NCCSc1ccccc1 | 16.5 µg/mL (≈ 48.8 µM)
44 | CCOP(=O)(OCC)C(O)c1cccc([N+](=O)[O-])c1 (stereo not given) | 39.2 µg/mL (≈ 136 µM)
45 | COc1ccc(CCN2Cc3c(N)cccc3C2=O)cc1OC | > 46.9 µg/mL
46 | O=[N+]([O-])c1ccc(COP(=O)([O-])OCc2ccc([N+](=O)[O-])cc2)cc1.[Na+] | 58.2 µg/mL
47 | Cn1c(SCc2ccccc2F)nc2ccccc2c1=O | < 0.3 µg/mL
48 | CS(=O)(=O)O.c1cnc(N2CCN(Cc3ccc4c(c3)OCO4)CC2)nc1 | > 59.2 µg/mL

Row | SMILES | solubility kinetic
49 | O=C(NCCc1c[nH]c2ccccc12)/C(=C/c1cccnc1)NC(=O)c1ccco1 | > 60.1 µg/mL
50 | CC(C)(C)C(=O)NC1CC2CCCC(C1)N2C(=O)Nc1ccccc1F (stereo not given) | 6.1 µg/mL (≈ 16.9 µM)
51 | O=C(COC(=O)c1cccs1)Nc1ccccc1C(F)(F)F | 2.5 µg/mL (≈ 7.59 µM)
52 | Cc1ccc(N2CC(C(=O)N3CCCCCC3)CC2=O)cc1 (stereo not given) | > 45.1 µg/mL
53 | Cc1c(N(C)CS(=O)(=O)O)c(=O)n(-c2ccccc2)n1C.[Na] | > 50.2 µg/mL
54 | COc1ccc(CC(=O)O/N=C(\N)c2ccccn2)cc1 | > 42.8 µg/mL
55 | CCOc1ccc(Cl)cc1S(=O)(=O)NCc1ccccn1 | > 49 µg/mL
56 | Cc1nc(C)c(-c2csc(Nc3ccc(O)cc3C)n2)s1 | < 0.2 µg/mL
57 | C=CC(C)C(C(=O)c1ccccc1)N(C)C (stereo not given) | 12 µg/mL (≈ 55.2 µM)
58 | CC1(N(O)C=C2C=CC(=O)C=C2)CCCCC1=O (stereo not given) | > 37.1 µg/mL
59 | COc1ccccc1NCC(=O)c1ccc(C)c(C)c1 | 2.6 µg/mL (≈ 9.65 µM)
60 | OCC1(Cc2ccccc2)CCN(Cc2ccccn2)CC1 | > 44.5 µg/mL
61 | O=c1[nH]c(COc2ccccc2)nc2ccccc12 | 4.1 µg/mL (≈ 16.3 µM)
62 | COCCNc1ncnc2c1nc1n2CCCC1 | > 37.1 µg/mL
63 | COc1cc2ccccc2cc1C(=O)N1CC(C)CC(C)C1 (stereo not given) | > 44.6 µg/mL
64 | N#C/C(=C(/O)CO/N=C/c1ccccc1Cl)c1nc2ccccc2[nH]1 | < 0.2 µg/mL
65 | OC(c1ccccc1)(c1ccccc1)C1CCNCC1 | > 40.1 µg/mL
66 | Nc1ccc(Sc2ccccc2)nc1 | > 30.3 µg/mL
67 | O=C(c1ccccc1)C1NC1c1ccccc1 (stereo not given) | 26.9 µg/mL (≈ 120 µM)
68 | CNC(=O)/C(C#N)=C/c1ccc(OCCOc2ccccc2)cc1 | 2.3 µg/mL (≈ 7.13 µM)
69 | CSCCC(NS(=O)(=O)c1ccc(C)cc1C)C(=O)Nc1cccnc1 (stereo not given) | > 59 µg/mL
70 | CC(C)c1ccc2nc(N)sc2c1 | 28.3 µg/mL (≈ 147 µM)
71 | COc1ccc(-c2c(C#N)c(N)nc3c2CCC3)cc1 | 0.3 µg/mL (≈ 1.13 µM)
72 | O=C(/C=C/c1ccc(F)cc1)Nc1cccc(S(=O)(=O)N2CCOCC2)c1 | 13.9 µg/mL (≈ 35.6 µM)

Row | SMILES | solubility kinetic
73 | COc1ccc(Nc2ncc(F)c(N3CCOCC3)n2)cc1 | 3.8 µg/mL (≈ 12.5 µM)
74 | Cc1cc(S(=O)(=O)Nc2cccnc2)c(Cl)cc1Cl | 4.5 µg/mL (≈ 14.2 µM)
75 | O=C(Nc1ccccc1F)OC1CN2CCC1CC2 (stereo not given) | > 39.6 µg/mL
76 | CN(C)c1ccc2c3c(ccc(N(C)C)c13)C(=O)OC2 | 36.6 µg/mL (≈ 135 µM)
77 | COc1ccc2c(c1OC)C(=O)N(c1ccc(O)cc1)C2=O | 41.4 µg/mL (≈ 138 µM)
78 | C=CCN(CC(=O)O)S(=O)(=O)c1ccccc1C(F)(F)F | > 48.5 µg/mL
79 | CCOCCCNC(=O)C1CC(=O)N(CCc2ccc(C)cc2)C1 (stereo not given) | > 49.9 µg/mL
80 | Cc1nc(NC(=O)CCl)sc1C(=O)N(C)C | > 39.3 µg/mL
81 | Cc1cccc(OCC(=O)N2CCCc3ccccc32)c1 | 30.3 µg/mL (≈ 108 µM)
82 | CC1CCC(NC(=O)Cn2c(=O)oc3ccccc32)CC1 (stereo not given) | 4.9 µg/mL (≈ 17 µM)
83 | CC1(NC(=O)Nc2cccc3ccccc23)CCS(=O)(=O)C1 (stereo not given) | 43 µg/mL (≈ 135 µM)
84 | CCN(CC)CCOC(=O)C(O)(c1ccccc1)c1ccccc1.Cl | > 54.6 µg/mL
85 | Cc1cc(C(=O)NCCc2ccc(Cl)cc2)no1 | 18.6 µg/mL (≈ 70.3 µM)
86 | CC1C=CCC2C(=O)N(c3ccc(OC(=O)c4ccco4)cc3)C(=O)C12 (stereo not given) | 18 µg/mL (≈ 51.2 µM)
87 | CC(=O)c1ccc(NC(=O)/C(C#N)=C/c2ccncc2)cc1 | 43.2 µg/mL (≈ 148 µM)
88 | CS(=O)(=O)N1CCN=C1SCc1ccccc1 | > 40.6 µg/mL
89 | CCOC(=O)c1c(C)[nH]c(C)c1C(=O)COC(=O)Cc1ccc(OC)c(OC)c1 | > 60.5 µg/mL
90 | CN(C)S(=O)(=O)c1cccc(C(=O)NCC2CCCCC2)c1 | 2.8 µg/mL (≈ 8.63 µM)
91 | CS(=O)(=O)N(CC(=O)N1CCCC1)Cc1ccccc1 | > 44.5 µg/mL
92 | Cc1ccc(NC(=O)COc2ccc(C(=O)c3ccccc3)cc2)c(O)c1 | 2.8 µg/mL (≈ 7.75 µM)
93 | COc1cc(Oc2ccccc2)nc(N)n1 | > 32.6 µg/mL
94 | Cc1nc2ccc(NS(=O)(=O)c3cccc([N+](=O)[O-])c3)cc2s1 | > 52.4 µg/mL
95 | O=C(Nc1ccc(Cl)cc1Cl)c1ccc(Br)o1 | < 0.7 µg/mL
96 | Cc1cc(NC(=O)CSc2nc3cc(Cl)ccc3o2)no1 | 0.5 µg/mL (≈ 1.54 µM)

Row | SMILES | solubility kinetic
97 | CN1CCN(C(=S)c2cn(Cc3ccccc3)c3ccccc23)CC1 | 30.8 µg/mL (≈ 88.1 µM)
98 | CCc1ccc(NS(=O)(=O)c2ccc3[nH]c(=O)[nH]c3c2)cc1 | 5.5 µg/mL (≈ 17.3 µM)
99 | O=C(CN1C(=O)S/C(=C\c2ccc(C(=O)O)cc2)C1=O)Nc1ccccc1 | 32.2 µg/mL (≈ 84.2 µM)
100 | O=C(CN1C2CCCC1CC(NC(=O)c1ccccc1)C2)NC1CC1 (stereo not given) | > 51.2 µg/mL
101 | COc1ccc(NC(=O)CN2C(=O)CSC2=O)cc1 | > 42 µg/mL
102 | CC1CCC(NS(=O)(=O)c2cccc3nsnc23)CC1 (stereo not given) | > 46.7 µg/mL
103 | CCC(=O)Nc1cccc(-c2nc3ncccc3o2)c1C | > 42.2 µg/mL
104 | CN(CC(=O)Nc1ccccc1Cl)C(=O)CCNC(=O)Nc1ccccc1 | > 58.3 µg/mL
105 | CSc1cccc(NC(=O)CNC(=O)C2CCCCC2)c1 | 22.7 µg/mL (≈ 74.1 µM)
106 | Cc1nc(C)c(-c2csc(Nc3ccc(S(N)(=O)=O)cc3)n2)s1 | 0.3 µg/mL (≈ 0.819 µM)
107 | Cc1ccc(C(=O)Nc2ccncc2)c(C)c1 | > 33.9 µg/mL
108 | Fc1cccc2sc(N3CCCC3)nc12 | 17.4 µg/mL (≈ 78.3 µM)
109 | O=C(Nc1cc([N+](=O)[O-])ccc1O)c1cccc([N+](=O)[O-])c1 | 37.1 µg/mL (≈ 122 µM)
110 | O=C(NCCN1CCOCC1)c1cc([N+](=O)[O-])ccc1Cl | > 47.1 µg/mL
111 | O=C(O)CN1C(=O)C(=O)N(Cc2ccc(Cl)c(Cl)c2)C1=O | 46.1 µg/mL (≈ 139 µM)
112 | Cc1ccc(S(=O)(=O)CCc2nc3ccccc3[nH]2)cc1 | > 45.1 µg/mL
113 | CCc1cccc2c(C(=O)COC(=O)[C@@H]3CC(O)CN3S(=O)(=O)c3ccccc3[N+](=O)[O-])c[nH]c12 (stereo not given in full) | 30.6 µg/mL (≈ 61 µM)
114 | CN(Cc1c(F)cccc1Cl)C(=O)c1ccc2ccccc2n1 | > 49.3 µg/mL
115 | CC(OC(=O)c1cc2sccc2n1C)C(=O)NC(C)(C)C (stereo not given) | > 46.3 µg/mL
116 | Cc1ccc(S(=O)(=O)NCc2ccccn2)cc1C | > 41.5 µg/mL
117 | CSc1ncccc1C(=O)OCC(=O)Nc1ccc(N2CCOCC2)cc1 | 10.6 µg/mL (≈ 27.4 µM)
118 | CCOC(=O)C1CCCN(C(=O)c2cccc3ccccc23)C1 (stereo not given) | > 46.7 µg/mL
119 | CCCCCn1cc(C(=O)C(=O)N2CCOCC2)c2ccccc21 | 46.8 µg/mL (≈ 143 µM)
120 | Cc1cc(C)cc(NC(=S)N2CCCC2)c1 | > 35.2 µg/mL

— PubChem BioAssay AID1996
